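Values below derive from 48-hour exposures of cells grown in 96-well plates, with endpoints linearly interpolated between the two concentrations bracketing the appropriate inhibition level. GI50 is the concentration that inhibits growth by half. TGI is the concentration that stops growth completely.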
Columns and labels:
Assay in all cases: NCI anticancer screen, dose series, 48 h
SR leukemia = test system: SR leukemia
A549 NSCLC = test system: A549 NSCLC
COLO 205 colon = test system: COLO 205 colon
HL-60(TB) leukemia = test system: HL-60(TB) leukemia
MOLT-4 leukemia = test system: MOLT-4 leukemia
HCT-116 colon = test system: HCT-116 colon
HOP-62 NSCLC = test system: HOP-62 NSCLC
IGROV1 ovarian = test system: IGROV1 ovarian
OVCAR-3 ovarian = test system: OVCAR-3 ovarian
SK-MEL-2 melanoma = test system: SK-MEL-2 melanoma

Compound	GI50 (SR leukemia) [µM]	TGI (SR leukemia) [µM]	GI50 (A549 NSCLC) [µM]	TGI (A549 NSCLC) [µM]	GI50 (COLO 205 colon) [µM]	TGI (COLO 205 colon) [µM]	GI50 (HL-60(TB) leukemia) [µM]	TGI (HL-60(TB) leukemia) [µM]	GI50 (MOLT-4 leukemia) [µM]	TGI (MOLT-4 leukemia) [µM]	GI50 (HCT-116 colon) [µM]	TGI (HCT-116 colon) [µM]	GI50 (HOP-62 NSCLC) [µM]	TGI (HOP-62 NSCLC) [µM]	GI50 (IGROV1 ovarian) [µM]	TGI (IGROV1 ovarian) [µM]	GI50 (OVCAR-3 ovarian) [µM]	TGI (OVCAR-3 ovarian) [µM]	GI50 (SK-MEL-2 melanoma) [µM]	TGI (SK-MEL-2 melanoma) [µM]
N#CCN/C=C\C(=O)c1ccc(Cl)cc1	11.5	44.1	> 100	> 100	32.7	> 100	14.2	> 100	21.3	> 100	29.9	> 100	38.6	> 100	31	> 100	17.7	59.1	20	53.9
O=[N+]([O-])CCc1cccc([N+](=O)[O-])c1		> 100		> 100		> 100		> 100		> 100		> 100		> 100		> 100		> 100		> 100
COC(=O)C(Cc1nc2ccccc2[nH]c1=O)C(=O)C(=O)Nc1ccc([N+](=O)[O-])cc1[N+](=O)[O-] (stereo not given)		> 100		> 100		35.2		66.5		59.1		46.5		45.4		55.4		30.5		69
CCOC(=N)CC(=O)c1ccccc1		> 100		> 100		> 100		> 100		> 100		> 100		> 100		> 100		> 100		> 100
CCc1cc(CCC(=O)Nc2c(C)cccc2C)[nH]n1		> 100		> 100		> 100		> 100		> 100		> 100		> 100		> 100		> 100		> 100
O=C(O)C(Cl)(c1ccccc1)c1ccccc1		> 100		> 100		> 100		> 100		> 100		> 100		> 100		> 100		> 100		> 100
CC/C(CC(=O)CCC(=O)Nc1ccccc1[N+](=O)[O-])=N/NC(=O)C[n+]1ccccc1		> 100		> 100		> 100		> 100		> 100		> 100		> 100		> 100		> 100		> 100
COc1cccc(NC(=O)c2sc3nc4c(cc3c2N)C(=O)CCC4)c1	0.133	> 100	0.103	> 100	0.0834	2.15	0.144	> 100	0.553	> 100	0.0745	> 100	0.337	> 100	0.381	> 100	0.0612	0.653	0.0611	> 100
Cc1cc(C)c(NC(=S)NC(=O)c2ccccc2)cc1C		> 100		> 100		> 100		> 100		> 100		> 100		> 100		> 100		> 100		> 100
C=C(Nc1ccc([N+](=O)[O-])cc1[N+](=O)[O-])c1c/c(=N\NC(N)=S)c2ccccc2o1		68.7		> 100		> 100		> 100		> 100		> 100		> 100		> 100		86.1		> 100
Cc1ccc(C)c(C2NC(=O)c3ccccc3N2)c1 (stereo not given)		> 27.4		> 100		7.06		0.56		31.9		19.8		> 87.6		> 100		0.997		72.6
CCn1c(-c2cc3ccccc3cc2O)nn(C(=O)c2c(Cl)cccc2Cl)c1=S	17.6	> 50	> 50	> 50	40.3	> 50	14.3	38.7	34.6	> 50	28.5	> 50	24.2	> 50	6.63	16.6	23.7	> 50	9.05	21.1
COc1ccccc1CNCCCN1C(=O)c2ccc3c4c(ccc(c24)C1=O)C(=O)N(CCCCNCCCN)C3=O	0.362	> 23.6	1.58	3.5	0.524	1.08	0.867	2.7	0.389	1.7	0.648	1.94	2.93	10.4	1.43	3.86	0.334	1.14	1.09	3.09
CCOC(=O)C(C)(C)Oc1ccc(/C=C/C(=O)c2ccc(Cl)cc2)cc1		> 100		> 100		53.2		> 100		76.8		31.5		> 100		35.1		30.4		39
COC(C(=O)NCCCCNC(=O)C(OC)c1ccccc1)c1ccccc1 (stereo not given)		> 100		> 100		> 100		> 100		> 100		> 100		> 100		> 100		> 100		> 100
CC[N+]1(C)CCC(O)(c2ccc(OC)cc2)C(C(=O)c2ccc(OC)cc2)C1 (stereo not given)		5.61		41.3		10.6		8.9		> 21.1		28.1		34.1		41.2		22.1		34.3
O=C1OC(O)C(Oc2c(Cl)cccc2Cl)=C1Cl (stereo not given)		54.1		34.7		30.2		50.1		85.7		27.9		34.7		46.2		31		34.2
COc1ccc(OC)c2c1[nH]c(=O)c1c3ncccc3cn21	3.43	> 100	2.83	15.3	2.79	> 100	3.13	> 100	3.59	> 100	1.85	13.2	3.22	> 100	3.21	> 100	4.54	18.4	7.17	> 100
CN/N=C(\C)C(CN(C)C)C(c1ccccc1)c1c(O)c2ccccc2oc1=O (stereo not given)		> 100		> 100		> 100		> 100		> 100		> 100		> 100		> 100		> 100		> 100
NC(=O)c1cccc(Nc2nccc(Nc3cccc4[nH]ncc34)n2)c1	8.72	> 25	> 24	> 25	5.5	17.1	10.5	> 25	12.8	> 25	8.58	> 25	9.28	> 25	10.5	> 25	8.31	24.6	7.91	17.8
Cn1c2ccc(Br)cc2c2c3c(c4c5ccccc5[nH]c4c21)C(=O)N(O)C3=O	0.0228	2.64	0.63	2.49	0.231	0.73	0.301	1.85	0.046	0.312	0.112	0.414	0.131	0.653	0.262	1.07	0.191	0.452	0.226	0.469
CC(=O)On1c(-c2ccccc2-c2nc3ccccc3n2OC(C)=O)nc2ccccc21		> 100		> 100		46		72.8		71.1		> 100		> 100		> 100		> 100		88.6
O=c1c2cccc3cccc(c4n1CCN=4)c32		81.5		> 100		> 100		> 100		> 100		> 100		> 100		> 100		> 100		> 100
FC(F)(F)C1(Br)C(c2ccccc2)=C1c1ccccc1		78.5		85.7		34.9		> 100		> 100		20.2		39.4		74.3		29.6		30
